Measured values taken from paper PMC5979965, “Structure-based discovery of mPGES-1 inhibitors suitable for preclinical testing in wild-type mice as a new generation of anti-inflammatory drugs” (Scientific Reports, 2018).
Read-outs that look alike come from different tables or passages of the source.

Experiments:
human mPGES-1 = target: T1, human mPGES-1 (Homo sapiens, UniProt O14684); experiment: Activity assay using recombinant human mPGES-1 (PGE2 enzyme immunoassay); type: biochemical
T1 construct: made in house; host or cells: FreeStyle 293-F cells, mPGES-1/pcDNA3 construct, crude microsomal preparation
T1 sequence (O14684 1-152): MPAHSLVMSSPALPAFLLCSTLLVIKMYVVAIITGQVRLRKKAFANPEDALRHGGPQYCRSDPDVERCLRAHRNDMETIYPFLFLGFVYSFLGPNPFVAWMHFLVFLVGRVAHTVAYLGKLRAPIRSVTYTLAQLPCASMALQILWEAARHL
Procedure: (§1) Our protocols for the protein preparation and in vitro activity assays were the same as described in previous reports[39],[41]–[43]. […] For the structure-activity relationship (SAR), we first investigated the impact of substitution on the central benzene ring on the inhibitory potency. […] The length of the alkoxy side chain was also inspected in compounds 4b and 6.
Purity was determined by HPLC (Waters 1525 Binary HPLC pump, Waters 2487 Dual λ Absorbance Detector, and Waters 717plus Autosampler, Milford, MA) at λ of […] using acetonitrile and 0.1% […]
TFA (70:30) as mobile phase.
(§2) 3. In vitro experimental tests
(§3) Preparation of mPGES-1 enzymes. Cloning of mPGES-1 and the protein preparation were described in our previous reports.15 Briefly, FreeStyle Max Expression system was used to express wild -type human and mouse mPGES-1 enzymes separately. FreeStyle 293-F cells were cultured following manufacturer’s manual in FreeStyle 293 expression medium on orbit rotate shaker in 8% CO 2 incubator at 37 °C. Cells were transfected with 1.5 µg/mL of mPGES-1/pcDNA3 construct using FreeStyle Max reagent at a cell density of 1 × 106 for 2 days. Transfected cells were collected, washed, and sonicated in TSES buffer (15 mM Tris-HCl, pH 8.0 plus 0.25 M sucrose, 0.1 mM EDTA and 1 mM DTT) on ice. The broken cells were first centrifuged at 12,500 × g for 10 min. The supernatant was further centrifuged at 105,000 × g for 1 hr at 4 °C. The pellet was washed and homogenized in PBS buffer. The crude microsomal mPGES -1 preparations were aliquoted and stored at -80 °C before use.
(§4) PGH2 (stored in dry ice). […] After 1
(§5) Following the formation of […]

mouse mPGES-1 [1] = target: T2, mouse mPGES-1 (Mus musculus, UniProt Q9JM51); experiment: Activity assay using recombinant mouse mPGES-1 (PGE2 enzyme immunoassay); type: biochemical
T2 construct: made in house; host or cells: FreeStyle 293-F cells, mPGES-1/pcDNA3 construct, crude microsomal preparation
T2 sequence (Q9JM51 1-153): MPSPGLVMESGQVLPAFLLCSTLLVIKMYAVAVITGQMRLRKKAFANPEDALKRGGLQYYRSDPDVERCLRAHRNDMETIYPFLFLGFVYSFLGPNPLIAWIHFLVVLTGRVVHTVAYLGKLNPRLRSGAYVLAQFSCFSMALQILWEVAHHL
Excerpt: as §1, with “The central benzene rings of 4i was originated from salicylaldehydes with chlorine substituted on 5-position. […] The” for “The”
as §2, §3, §4, §5

PGE2 levels in kidney = experiment: Wild-type mice based air-pouch model of inflammation (carrageenan), PGE2 by ELISA; details: for PGE2 levels in mice (kidney): 24 hours, vs vehicle
mice [2] = experiment: Acute toxicity/safety testing in mice after PO administration
Procedure: (§6) Animals. Wild-type CD-1 mice (28-35 g) were ordered from Harlan (Indianapolis, IN), and housed
(§7) for a week prior to the experimental studies. All animals were allowed ad libitum access to food and water
(§8) and maintained on a 12 h light/12 h dark cycle, with the lights on at 8:00 am at a room temperature of 21–
(§9) 22 °C. Experiments were performed in a same colony room in accordance with the Guide for the Care and
(§10) Use of Laboratory Animals as adopted and promulgated by the National Institutes of Health. The animal
(§11) protocol was approved by the IACUC (Institutional Animal Care and Use Committee) at the University
(§12) Preparation of pictures during acute toxicity testing. Mice were divided into three groups and
(§13) treated with oral administration of a single dose of vehicle (Wesson vegetable oil, Memphis, TN), 4b (250
(§14) mg/mL in Wesson vegetable oil at the dose of 1 g/kg), and celecoxib (12.5 mg/mL in Wesson vegetable

mouse mPGES-1 [3] = target: T2, mouse mPGES-1; details: cited from earlier work
rat enzyme (mPGES-1) = details: cited from earlier work
mice [4] = details: mouse, in vivo, po, 50 mg/kg
Procedure: as §6, §7, §8, §9, §10, §11, §12, §13, §14

[5] = IC50 (nM) against mPGES-1, Mouse mPGES-1, Mean ± SD of measurements in triplicate

O=C1NC(=O)C(=Cc2ccc(OCCCCC3CCCCC3)c(Cl)c2)C(=O)N1 [Compound 4b]
IC50 (human mPGES-1): 33 ± 3 nM | IC50 (mouse mPGES-1 [1]; [5]): 157 ± 31 nM | PGE2 levels in mice (kidney) (PGE2 levels in kidney; PO, 5 mg/kg single dose): significantly decreased | PGE2 levels in mice (kidney) (PGE2 levels in kidney; PO, 10 mg/kg single dose): significantly decreased | PGE2 levels in mice (kidney) (PGE2 levels in kidney; SC, 0.1 mg/kg single dose): significantly decreased | PGE2 levels in mice (kidney) (PGE2 levels in kidney; SC, 1 mg/kg single dose): significantly decreased | PGE2 levels in mice (kidney) (PGE2 levels in kidney; SC, 10 mg/kg single dose): significantly decreased | oral bioavailability (PGE2 levels in kidney; inferred from PO activity in mice): orally bioavailable | bleeding spots on the inner side of stomach samples (mice [2]; 24 hr after PO, 1 g/kg in oil): did not find any bleeding spot | toxic signs in mice (mice [2]; PO, high dose up to 1 g/kg, observation for 14 days): did not cause any toxic sign

N#Cc1cccc(C#N)c1-c1nc2c3ccc(Cl)cc3c3ccccc3c2[nH]1 [MF63, 2-(6-chloro-1H-phenanthro[9,10-d]imidazol-2-yl)-isophthalonitrile]
inhibition against mouse mPGES-1 at 10 µM (mouse mPGES-1 [1]; 10 µM): no significant inhibition | activity against the mouse enzyme, previously reported (mouse mPGES-1 [3]): without significant activity | activity against the rat enzyme, previously reported (rat enzyme (mPGES-1)): without significant activity

O=C1NC(=O)C(=Cc2cc(Cl)ccc2OCCCCC2CCCCC2)C(=O)N1 [Compound 4i]
IC50 (human mPGES-1): 87 ± 27 nM | IC50 (mouse mPGES-1 [1]; [5]): 19100 ± 3490 nM | IC50 (mouse mPGES-1 [1]; IC50 against the mouse enzyme): > 10000 nM

CC(C)c1ccc2c(c1)c(SC(C)(C)C)c(CC(C)(C)C(=O)O)n2Cc1ccc(Cl)cc1 [MK-886, reference compound]
inhibition of mouse mPGES-1 (mouse mPGES-1 [1]; concentration not given): without significant inhibition

Cc1ccc(-c2cc(C(F)(F)F)nn2-c2ccc(S(N)(=O)=O)cc2)cc1 [celecoxib]
bleeding spots on the inner side of stomach samples (mice [4]): at least one bleeding spot | finding at gastric mucosa (mice [4]): bleeding ulcer was observed | toxicity in mice (mice [4]): very toxic for stomach and other issues of mice

O=C1NC(=O)C(=Cc2ccc(OCCCC3CCCCC3)c(Cl)c2)C(=O)N1 [Compound 6]
IC50 (human mPGES-1): 69 ± 16 nM | IC50 (mouse mPGES-1 [1]; [5]): 292 ± 47 nM
